Results as given in patent publication US10059703B2, “3-alkyl-5-fluoro-4-substituted-imino-3,4-dihydropyrimidin-2(1H)-one derivatives as fungicides” (Adama Makhteshim Ltd., priority 2012, dated 2018).
Like-named read-outs stand apart in the source and are kept apart here.

Key:
[1] = system: Septoria tritici; experiment: Fungicidal activity: leaf blotch of wheat, one-day protectant and three-day curative tests on wheat plants; type: in vivo; conditions: Zymoseptoria tritici
Description: Example 16: Evaluation of Fungicidal Activity: Leaf Blotch of Wheat (Mycosphaerella graminicola; anamorph: Septoria tritici; Bayer code SEPTTR)
Wheat plants (variety Yuma) were grown from seed in a greenhouse in 50% mineral soil/50% soil-less Metro mix until the first leaf was fully emerged, with 7-10 seedlings per pot. These plants were inoculated with an aqueous spore suspension of Septoria tritici either prior to or after fungicide treatments. After inoculation the plants were kept in 100% relative humidity (one day in a dark dew chamber followed by two to three days in a lighted dew chamber) to permit spores to germinate and infect the leaf. The plants were then transferred to a greenhouse for disease to develop.
(§1) The following tables present the activity of typical compounds of the present disclosure when evaluated in these experiments. The effectiveness of the test compounds in controlling disease was determined by assessing the severity of disease on treated plants, then converting the severity to percent control based on the level of disease on untreated, inoculated plants.
as §1, with “table presents” for “tables present”

[2] = 24 h, One-Day Protectant (1 DP), 100 ppm, wheat plants (variety Yuma), read-out: SEPTTR 100 PPM 1 DP (% Disease Control rating)
[3] = 72 h, Three-Day Curative (3 DC), 100 ppm, wheat plants (variety Yuma), read-out: SEPTTR 100 PPM 3 DC (% Disease Control rating)

Structure (SMILES)	melting point [°C]	pest or weed control at 100 ppm [1, 2] [%]	pest or weed control at 100 ppm [1, 3] [%]	pest or weed control at 100 ppm ([1]; 24 h, read-out: SEPTTR 100 PPM 1 DP (% Disease Control rating)) [%]	pest or weed control at 100 ppm ([1]; 72 h, read-out: SEPTTR 100 PPM 3 DC (% Disease Control rating)) [%]
C/N=c1\c(F)cn(S(=O)(=O)c2ccc(OC)cc2)c(=O)n1C [Compound F1, (E)-5-fluoro-1-((4-methoxyphenyl)sulfonyl)-3-methyl-4-(methylimino)-3,4-dihydropyrimidin-2(1H)-one]	97 to 105	76 to 100	51 to 75		
C/N=c1\c(F)cn(S(=O)(=O)c2ccccc2)c(=O)n1C [Compound F2]	142 to 144	76 to 100	51 to 75		
C/N=c1\c(F)cn(S(=O)(=O)c2ccc(C)cc2)c(=O)n1C [Compound F3]	117 to 123	76 to 100	51 to 75		
C/N=c1\c(F)cn(S(=O)(=O)c2cccs2)c(=O)n1C [Compound F4]	136 to 138	76 to 100	76 to 100		
C/N=c1\c(F)cn(S(=O)(=O)c2ccc(Cl)cc2)c(=O)n1C [Compound F5]	130 to 134	76 to 100	76 to 100		
C/N=c1\c(F)cn(S(=O)(=O)c2ccc(OC(F)(F)F)cc2)c(=O)n1C [Compound F6]	139.2 to 140	76 to 100	76 to 100		
C/N=c1\c(F)cn(S(=O)(=O)c2cccc(C#N)c2)c(=O)n1C [Compound F7]	148.6 to 150.6	26 to 50	51 to 75		
C/N=c1\c(F)cn(S(=O)(=O)c2ccccc2OC)c(=O)n1C [Compound F8]	204 to 205.4	76 to 100	76 to 100		
C/N=c1\c(F)cn(S(=O)(=O)c2cc(Cl)sc2Cl)c(=O)n1C [Compound F9]	157.1 to 158	76 to 100	76 to 100		
C/N=c1\c(F)cn(S(=O)(=O)c2ccc(C)c(Cl)c2)c(=O)n1C [Compound F10]	149.4 to 151	76 to 100	51 to 75		
C/N=c1\c(F)cn(S(=O)(=O)c2cc(OC)ccc2OC)c(=O)n1C [Compound F11]	115 to 117.8	76 to 100	76 to 100		
C/N=c1\c(F)cn(S(=O)(=O)c2cccc(OC)c2)c(=O)n1C [Compound F12]	111.4 to 112	76 to 100	76 to 100		
C/N=c1\c(F)cn(S(=O)(=O)c2ccc(OC)c(F)c2)c(=O)n1C [Compound F13]	138.9 to 140.3	76 to 100	76 to 100		
C/N=c1\c(F)cn(S(=O)(=O)c2cccc(F)c2)c(=O)n1C [Compound F14]	137.3 to 138.9	76 to 100	51 to 75		
C/N=c1\c(F)cn(S(=O)(=O)c2c(C)cc(C)cc2C)c(=O)n1C [Compound F15]	175.7 to 177.6	26 to 50	26 to 50		
C/N=c1\c(F)cn(S(=O)(=O)c2cccc(C)c2)c(=O)n1C [Compound F16]	123.7 to 125.8	26 to 50	0 to 25		
C/N=c1\c(F)cn(S(=O)(=O)c2ccsc2)c(=O)n1C [Compound F17]	121.1 to 122.6	76 to 100	76 to 100		
C/N=c1\c(F)cn(S(=O)(=O)c2cn(C)nc2C)c(=O)n1C [Compound F18]	147 to 149	26 to 50	76 to 100		
C/N=c1\c(F)cn(S(=O)(=O)c2c(C)noc2C)c(=O)n1C [Compound F19]	130.1 to 131.1	0 to 25	51 to 75		
C/N=c1\c(F)cn(S(=O)(=O)c2cc(Cl)cc(Cl)c2)c(=O)n1C [Compound F20]	135 to 136.9	26 to 50	0 to 25		

Structure (SMILES)	melting point [°C]	pest or weed control at 100 ppm [1, 2] [%]	pest or weed control at 100 ppm [1, 3] [%]	pest or weed control at 100 ppm ([1]; 24 h, read-out: SEPTTR 100 PPM 1 DP (% Disease Control rating)) [%]	pest or weed control at 100 ppm ([1]; 72 h, read-out: SEPTTR 100 PPM 3 DC (% Disease Control rating)) [%]
C/N=c1\c(F)cn(S(=O)(=O)c2ccc(F)cc2Cl)c(=O)n1C [Compound F21]	109 to 112				
C/N=c1\c(F)cn(S(=O)(=O)c2cc(C)c(Cl)cc2C)c(=O)n1C [Compound F22]		76 to 100	76 to 100		
C/N=c1\c(F)cn(S(=O)(=O)c2sc(C)nc2C)c(=O)n1C [Compound F23]		26 to 50	76 to 100		
COc1ccc(S(=O)(=O)n2cc(F)/c(=N\C(=O)Oc3ccccc3)n(C)c2=O)cc1 [Compound F24, phenyl (5-fluoro-1-((4-methoxyphenyl)sulfonyl)-3-methyl-2-oxo-2,3-dihydropyrimidin-4(1H)-ylidene)carbamate]	190 to 193			0 to 25	0 to 25
Cc1ccc(S(=O)(=O)n2cc(F)/c(=N/C(=O)C(C)C)n(COC(=O)C(C)C)c2=O)cc1 [Compound F25, Z)-(5-fluoro-6-(isobutyrylimino)-2-oxo-3-tosyl-2,3-dihydropyrimidin-1(6H)-yl)methyl isobutyrate]		0 to 25	76 to 100		
COc1ccc(S(=O)(=O)n2cc(F)/c(=N/C(C)=O)n(C)c2=O)cc1 [Compound F26]		76 to 100	76 to 100		
COC(=O)/N=c1\c(F)cn(S(=O)(=O)c2ccc(OC)cc2)c(=O)n1C [Compound F27, methyl (5-fluoro-1-((4-methoxyphenyl)sulfonyl)-3-methyl-2-oxo-2,3-dihydropyrimidin-4(1H)-ylidene)carbamate]	124 to 125	0 to 25	0 to 25		
C/N=c1\c(F)cn(S(=O)(=O)C2CC2)c(=O)n1C [Compound F28]	102.2 to 104	0 to 25	51 to 75		
CC(=O)/N=c1\c(F)cn(S(=O)(=O)c2ccc(C)cc2)c(=O)n1C [Compound F29]	134.6 to 136.2	76 to 100	76 to 100		
CC(=O)/N=c1\c(F)cn(S(=O)(=O)c2ccccc2)c(=O)n1C [Compound F30]	174	76 to 100	76 to 100		
COc1ccc(S(=O)(=O)n2cc(F)/c(=N\C(C)=O)n(C)c2=O)cc1 [Compound F31, N-(5-fluoro-1-((4-methoxyphenyl)sulfonyl)-3-methyl-2-oxo-2,3-dihydropyrimidin-4(1H)-ylidene)acetamide]		76 to 100	76 to 100		
CCc1ccc(S(=O)(=O)n2cc(F)/c(=N\C(C)=O)n(C)c2=O)cc1 [Compound F32]	158	76 to 100	76 to 100		
CC(=O)/N=c1\c(F)cn(S(=O)(=O)c2ccc(C(C)C)cc2)c(=O)n1C [Compound F33]	165	76 to 100	26 to 50		
CC(=O)/N=c1\c(F)cn(S(=O)(=O)c2cccc(C)c2)c(=O)n1C [Compound F34]	164	76 to 100	0 to 25		
CC(=O)/N=c1\c(F)cn(S(=O)(=O)c2cc(C)c(Cl)cc2C)c(=O)n1C [Compound F35]	173	76 to 100	26 to 50		
CC(=O)/N=c1\c(F)cn(S(=O)(=O)c2cc(Cl)sc2Cl)c(=O)n1C [Compound F36]	154	76 to 100	51 to 75		
[2H]C([2H])([2H])/N=c1\c(F)cn(S(=O)(=O)c2ccccc2)c(=O)n1C([2H])([2H])[2H] [Compound F61, 5-fluoro-1-(phenylsulfonyl)-3-trideuteriomethyl-4-(trideuteriomethylimino)-3,4-dihydropyrimidin-2(1H)-one]		0 to 25	0 to 25		
[2H]C([2H])([2H])/N=c1\c(F)cn(S(=O)(=O)c2ccc(C)cc2)c(=O)n1C([2H])([2H])[2H] [Compound F62, 5-fluoro-1-((4-methylphenyl)sulfonyl)-3-trideuteriomethyl-4-(trideuteriomethylimino)-3,4-dihydropyrimidin-2(1H)-one]		0 to 25	0 to 25		
[2H]C([2H])([2H])/N=c1\c(F)cn(S(=O)(=O)c2ccc(OC)cc2)c(=O)n1C([2H])([2H])[2H] [Compound F63, 5-fluoro-1-((4-methoxyphenyl)sulfonyl)-3-trideuteriomethyl-4-(trideuteriomethylimino)-3,4-dihydropyrimidin-2(1H)-one]		0 to 25	0 to 25		
